Where “and” joins values, the source holds several entries; their conditions need not be identical. Equal entries are not always repeated. Entries after “also recorded” stand apart in the source; their conditions may differ. Where two headings read alike, the source gives them in different places.
Key:
[1] = target: T1, SARS‐CoV‐2 M^pro (Severe acute respiratory syndrome coronavirus 2, UniProt P0DTD1); assay: M^Pro inhibition (fluorescence‐based turnover assay / dose response); format: biochemical; settings: enzyme inhibition; 17: fluorescence‐based turnover assay
T1 construct: M^pro releases the functional polypeptides from the polyproteins by extensive proteolytic processing

[2] = tested on: Pseudotyped SARS CoV2; format: cell-based; settings: HEK293T/17 with ACE2 and TMPRSS2, 48 hours, toxic concentrations excluded, normalised data
[3] = tested on: HEK293T/17 cells; settings: for Cytostatic effect (in words): HEK293T/17 cells; for Cytostatic effect at concentrations above: 200–0.4 μM range
[4] = target: human HDHODH (Homo sapiens, UniProt Q02127); assay: HDHODH inhibition, in vitro fluorescence‐based assays run by Reaction Biology; format: biochemical
human HDHODH, sequence (Q02127 whole entry): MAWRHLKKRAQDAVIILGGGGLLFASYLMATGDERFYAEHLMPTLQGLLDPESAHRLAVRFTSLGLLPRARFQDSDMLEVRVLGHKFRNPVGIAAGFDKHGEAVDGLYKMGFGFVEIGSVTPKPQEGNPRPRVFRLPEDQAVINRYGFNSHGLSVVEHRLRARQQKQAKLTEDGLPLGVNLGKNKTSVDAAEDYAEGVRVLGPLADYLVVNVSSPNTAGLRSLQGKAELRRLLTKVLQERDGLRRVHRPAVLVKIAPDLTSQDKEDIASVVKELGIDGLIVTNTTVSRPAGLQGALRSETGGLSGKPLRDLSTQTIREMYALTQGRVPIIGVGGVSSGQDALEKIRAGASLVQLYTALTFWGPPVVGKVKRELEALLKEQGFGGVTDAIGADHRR

[5] = target: VEGFR2 (Homo sapiens, UniProt P35968); assay: Biochemical kinase assay, VEGFR2; settings: for inhibition at 10 µM: read-out: Percent inhibition at 10 μM; for IC50: n=1, 10‐dose IC50 mode with twofold serial dilutions, starting at 10 μM
VEGFR2, sequence (P35968 20-1356): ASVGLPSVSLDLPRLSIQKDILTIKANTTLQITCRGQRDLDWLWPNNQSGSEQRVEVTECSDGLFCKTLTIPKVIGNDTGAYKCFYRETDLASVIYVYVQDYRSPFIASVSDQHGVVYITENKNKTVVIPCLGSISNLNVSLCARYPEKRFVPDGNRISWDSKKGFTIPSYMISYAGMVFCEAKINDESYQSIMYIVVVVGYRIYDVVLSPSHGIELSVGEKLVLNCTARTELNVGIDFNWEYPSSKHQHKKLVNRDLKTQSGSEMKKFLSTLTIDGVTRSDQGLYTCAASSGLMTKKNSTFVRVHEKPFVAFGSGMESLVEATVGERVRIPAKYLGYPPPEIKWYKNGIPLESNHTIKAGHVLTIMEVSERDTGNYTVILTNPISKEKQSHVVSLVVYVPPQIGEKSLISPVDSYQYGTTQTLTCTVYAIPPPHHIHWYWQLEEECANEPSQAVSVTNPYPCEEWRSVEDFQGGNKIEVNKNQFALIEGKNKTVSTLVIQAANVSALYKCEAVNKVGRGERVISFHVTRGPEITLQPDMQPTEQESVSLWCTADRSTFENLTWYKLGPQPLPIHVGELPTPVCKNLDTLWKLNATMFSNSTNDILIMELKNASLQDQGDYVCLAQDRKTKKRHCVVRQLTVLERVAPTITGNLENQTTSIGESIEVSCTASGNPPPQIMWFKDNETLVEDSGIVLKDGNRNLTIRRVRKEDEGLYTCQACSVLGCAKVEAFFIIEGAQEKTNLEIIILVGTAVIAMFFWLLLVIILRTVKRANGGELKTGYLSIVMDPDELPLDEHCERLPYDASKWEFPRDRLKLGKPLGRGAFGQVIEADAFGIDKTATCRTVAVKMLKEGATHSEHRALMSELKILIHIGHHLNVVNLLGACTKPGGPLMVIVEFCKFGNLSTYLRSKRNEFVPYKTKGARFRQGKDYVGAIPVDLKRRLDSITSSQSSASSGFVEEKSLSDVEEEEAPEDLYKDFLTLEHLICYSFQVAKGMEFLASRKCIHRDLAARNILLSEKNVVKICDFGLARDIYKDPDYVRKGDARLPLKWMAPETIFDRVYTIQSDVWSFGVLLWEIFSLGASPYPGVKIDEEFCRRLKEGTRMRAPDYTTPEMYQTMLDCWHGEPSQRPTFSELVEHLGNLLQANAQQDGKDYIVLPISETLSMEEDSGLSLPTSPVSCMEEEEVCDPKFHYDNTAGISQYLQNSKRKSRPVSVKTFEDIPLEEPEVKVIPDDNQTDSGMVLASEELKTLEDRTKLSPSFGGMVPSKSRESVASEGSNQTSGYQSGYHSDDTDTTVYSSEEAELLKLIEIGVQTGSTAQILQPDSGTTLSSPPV

**Q.** With `CN1C(=O)C2(CCOCC2)c2cc(S(F)(F)(F)(F)F)ccc21` [11 b, 1‐Methyl‐5‐(pentafluoro‐λ^6‐sulfanyl)‐1,2‐dihydrospiro[indole‐ 3,4′‐oxan]‐2‐one] as the compound, how does the melting point read?
**A.** Its melting point is 158 °C.

**Q.** Which IC50 [1] does the source give for `N#C/C(C(=O)Nc1ccc(F)cc1)=C(/O)c1ccc(Cl)cc1` [compound 17] here?
**A.** The IC50 was 230 nM.

**Q.** What about the “Effect on SARS‐CoV‐2 infection of target cells (in words)” value (“Effect on SARS‐CoV‐2 infection” for short) [2] of the same compound?
**A.** Its value is “enhancing effect”.

**Q.** And the “Cells healthy up to” value ([3]; HEK293T/17, MTS, 48 hours)?
**A.** Its value is “up to 50 μM”.

**Q.** What about the “Cytostatic effect (in words)” value [3] of the same compound?
**A.** The value was “less cytostatic”.

**Q.** And the “Activity versus HDHODH (in words)” value [4]?
**A.** Its value is “inactive; also recorded: no affinity”.

**Q.** And the inhibition at 10 µM ([4]; HDHODH, 10 μM, read-out: Percent inhibition at 10 μM)?
**A.** Its inhibition at 10 µM is less than 10%.

**Q.** Which results are given for `Cc1cc(C)c(/C=C2\C(=O)Nc3ccc(S(F)(F)(F)(F)F)cc32)[nH]1` [8 a, (3Z)‐3‐[(3,5‐Dimethyl‐1H‐pyrrol‐2‐yl)methylidene]‐5‐(pentafluoro‐λ^6‐sulfanyl)‐2,3‐dihydro‐1H‐indol‐2‐ one]?
**A.** melting point: 203 to 205 °C; inhibition at 10 µM [5]: 27%; IC50 [5]: did not manifest sufficient inhibition to generate IC50 values

**Q.** Which melting point does the source give for `CC(C)=C1C(=O)Nc2ccc(S(F)(F)(F)(F)F)cc21` [8 b, 5‐(Pentafluoro‐λ^6‐sulfanyl)‐3‐(propan‐2‐ylidene)‐2,3‐dihydro‐1H‐indol‐2‐one] here?
**A.** Its melting point is 191 to 194 °C.

**Q.** Which results are given for `Cc1cc(C)c(/C=C2\C(=O)Nc3cc(S(F)(F)(F)(F)F)ccc32)[nH]1` [9 a, (3Z)‐3‐[(3,5‐Dimethyl‐1H‐pyrrol‐2‐yl)methylidene]‐6‐(pentafluoro‐λ^6‐sulfanyl)‐2,3‐dihydro‐1H‐indol‐2‐one]?
**A.** melting point: 199 to 201 °C; inhibition at 10 µM [5]: 23%; IC50 [5]: did not manifest sufficient inhibition to generate IC50 values

**Q.** With `Cc1oncc1C(=O)Nc1ccc(S(F)(F)(F)(F)F)cc1` [compound 15, 5‐Methyl‐N‐[4‐(pentafluoro‐λ^6‐sulfanyl)phenyl]‐1,2‐oxazole‐ 4‐carboxamide] as the compound, how does the melting point read?
**A.** The melting point was 167 to 168 °C.

**Q.** And the “Effect on SARS‐CoV‐2 infection” value [2]?
**A.** Its value is “satisfactory inhibition of SARS‐CoV‐2 infection”.

**Q.** What about the “Cytostatic effect (in words)” value [3] of the same compound?
**A.** The value was “cytostatic”.

**Q.** What about the IC50 ([4]; IC50, HDHODH inhibition) of the same compound?
**A.** The IC50 was 365 nM.

**Q.** What does the source list for `C/C(O)=C(\C#N)C(=O)Nc1ccc(S(F)(F)(F)(F)F)cc1` [compound 16, (2Z)‐2‐Cyano‐3‐hydroxy‐N‐[4‐(pentafluoro‐λ^6‐sulfanyl)phenyl] but‐2‐enamide]?
**A.** melting point: 167 to 170 °C; Effect on SARS‐CoV‐2 infection of target cells (in words) ([2]; listed as SF5-teriflunomide): no effect; Cytostatic effect at concentrations above ([3]; HEK293T/17, MTS, 48 hours): > 3.1 µM; Cytostatic effect (in words) [3]: cytostatic; Cytostatic effect (in words) ([3]; listed as SF5-teriflunomide): strong cytostatic; IC50 ([4]; IC50, HDHODH inhibition): 27 nM; IC50 ([4]; IC50, individual determinations behind the mean (n=2), HDHODH inhibition): 29 nM and 25 nM; Activity/affinity towards HDHODH compared with Teriflunomide ([4]; relative to Teriflunomide, listed as SF5‐Teriflunomide): approximately twice as active; also recorded: approximately two‐fold greater affinity

**Q.** Which melting point does the source give for `CS(=O)(=O)N1CCN(C(=O)c2cccc(S(F)(F)(F)(F)F)c2)CC1` [3 f, (3‐Pentafluoro‐λ^6‐sulfanyl phenyl)(4‐(methylsulfonyl)piperazin‐1‐yl)methanone] here?
**A.** The melting point was 159 to 160 °C.

**Q.** For `C/C(O)=C(\C#N)C(=O)Nc1ccc(C(F)(F)F)cc1` [Teriflunomide, reference compound], which “Effect on SARS‐CoV‐2 infection” value ([2]; listed as teriflunomide) is on record?
**A.** Its value is “no effect”.

**Q.** What about the “Cytostatic effect at concentrations above” value ([3]; HEK293T/17, MTS, 48 hours) of the same compound?
**A.** The value was “above 0.78 μM”.

**Q.** And the “Cytostatic effect (in words)” value [3]?
**A.** The value was “cytostatic”.

**Q.** And the “Cytostatic effect (in words)” value ([3]; listed as teriflunomide)?
**A.** Its value is “strong cytostatic”.

**Q.** With `O=C(c1cccc(S(F)(F)(F)(F)F)c1)N1CCCCC1` [3 a, [3‐(Pentafluoro‐λ^6‐sulfanyl)phenyl](piperidin‐1‐yl)methanone] as the compound, how does the melting point read?
**A.** Its melting point is 88 to 90 °C.

**Q.** For `O=C(c1cccc(S(F)(F)(F)(F)F)c1)N1CCOCC1` [3 c, [3‐(Pentafluoro‐λ^6‐sulfanyl)phenyl](morpholino)methanone], which melting point is on record?
**A.** Its melting point is 63 to 64 °C.

**Q.** For `O=C1Nc2ccc(S(F)(F)(F)(F)F)cc2C12CCOCC2` [11 a, 5‐(Pentafluoro‐λ^6‐sulfanyl)‐1,2‐dihydrospiro[indole‐3,4′‐ oxan]‐2‐one], which melting point is on record?
**A.** The melting point was 247 to 249 °C.

— paper PMC9305131, “Expanding the Repertoire of Low‐Molecular‐Weight Pentafluorosulfanyl‐Substituted Scaffolds” (Chemmedchem, 2022)
